Experimental data: patent publication US20040170714A1, “Bauhinia extracts” (priority 2001, published 2004)

What was measured:
[1] = system: N0-STZ rats; assay: Fasting plasma glucose concentration on day 5 in the N0-STZ rat model; type: in vivo; details: 2 × 100 mg/kg daily; day 5, after 2 hour fasting, before glucose; control −14
Protocol: The fasting plasma glucose concentration (table 4) is measured from blood samples obtained after a 2 hour fasting period on day 5 before the administration of glucose. In addition, preferred extracts of the invention in hand show a significant decrease of the fasting plasma glucose concentration versus initial basal glycemia. Preferred extracts show a decrease of the fasting plasma glucose concentration of at least 10%, more preferred of at least 28% versus initial basal glycemia.
The fasting plasma glucose concentration (table 4) is measured from blood samples obtained after a 2 hour fasting period on day 5 before the administration of glucose.

[2] = system: N0-STZ rats; assay: Oral Glucose Tolerance Test (OGTT) in the N0-STZ rat model after 5 days of gavage; type: in vivo; details: Example 2a, 2 × 100 mg/kg daily for 5 days
Protocol: The N0-STZ rat model is described in Portha B., Picon L., Rosselin G., Diabetologia, 1979, 17, 371-377. The Oral Glucose Tolerance Test (OGTT) is described in Wilkerson: Diagnosis, oral glucose tolerance test: in Diabetes mellitus, Diagnosis & Treatment, p.31-34, NY, American Diabetes Association, 1964. During 5 days an appropriate dose of the extract is gavaged into the N0-STZ rats two times a day. Three hours after the last administration the Oral Glucose Tolerance Test (OGTT) is performed in awake rats by administering 2 g glucose/kg body weight. Blood samples are collected just before glucose administration (0 min) and after 30, 60 90, 120 and 180 minutes.
(§1) The N0-STZ rat model is used to evaluate the efficacy of the extract of example 1. During 5 days an appropriate dose of the drug (table 1) is gavaged into 8 N0-STZ rats two times a day. Three hours after the last administration the Oral Glucose Tolerance Test (OGTr) is performed in awake rats by administering 2 g glucose/kg body weight. Blood samples are collected just before glucose administration (0 min) and after 30, 60 90 and 120 minutes.
as §1, with “5)” for “1)”, “rats.” for “rats two times a day.”, “(OGTT)” for “(OGTr)”

Structure (SMILES): CN(C)C(=N)N=C(N)N [example 24, metformin]
- Effect on fasting Plasma Glucose Concentration in % of variation versus initial basal glycemia [1]: −31%
- OGTT area under curve: deviation from control (23) [2]: −18%
- OGTT: Area under curve (Integration of the Plasma Glucose Level versus time, table 2) ([2]; 0-120 min): 26363
- Plasma Glucose Level ([2]; 30 min after 2 g glucose/kg): 245 mg/dL
- Plasma Glucose Level ([2]; 60 min after 2 g glucose/kg): 242 mg/dL
- Plasma Glucose Level ([2]; 90 min after 2 g glucose/kg): 223 mg/dL
- Plasma Glucose Level ([2]; 120 min after 2 g glucose/kg): 207 mg/dL
- Plasma Glucose Level ([2]; time −0 min (just before 2 g glucose/kg)): 143 mg/dL
